{
  "source": "patent US9248098B2",
  "about": "“Treating or preventing pain using spicamycin derivatives” (DARA BIOSCIENCES, INC., priority 2008, dated 2016)",
  "key": {"[1]": {"tested_on": "patients with end-stage cancer experiencing neuropathic pain", "assay": "Phase 2 placebo-controlled study of KRN5500, safety", "format": "in vivo, human", "procedure": "(§1) A Phase 2, multicenter, placebo-controlled, randomized, parallel group study was carried out to evaluate the safety, efficacy, and dose-response of KRN5500 in patients with end-stage cancer experiencing neuropathic pain. Nineteen (19) patients were enrolled in the study. Thirteen were randomized to receive KRN5500 and 6 were randomized to receive placebo. Due to a randomization error at an investigative site, one patient randomized to receive KRN5500 actually received placebo. Of the 12 patients who received KRN5500, 3 (25%) completed all dosing visits. Two (28.6%) of the patients who received placebo completed all dosing visits. No patients were lost to follow up and no patients died.\n(§2) The median duration of exposure to KRN5500 was 40 days compared to 29 days for placebo. On average, KRN5500 patients took 5.3 doses while placebo patients took 4.4 doses. The highest dose received was 2.2 mg/m^2. Seven (58.3%) of KRN5500 patients were exposed to at least one dose at this level, while 4 (57.1%) of Placebo patients were exposed to at least one dose at this level.\nAll patients treated with KRN5500 (100%) had at least one treatment emergent adverse event, compared to 86% (6 of 7 patients) in the Placebo treated group. Events recorded by the KRN5500 patients tended to be more severe (84% moderate or severe in KRN5500 vs. 71% in Placebo). Events were typically gastrointestinal disorders such as nausea or vomiting and were more frequently considered to be related to treatment in the KRN5500 group than in the Placebo group (92% vs. 14%). Three patients (25%) in the KRN5500 group and 1 (14%) patient in the Placebo group experienced serious adverse events (AEs). […] Two patients treated with KRN5500 withdrew from the study due to nausea and vomiting which were thought to be related to study drug. One patient treated with KRN5500 withdrew due to convulsions not thought to be related to study drug. One patient treated with Placebo withdrew from the study due to a stroke not related to study drug."}, "[2]": {"tested_on": "rat models of neuropathic pain", "settings": "Abdi et al. 2000; Kobierski et al. 2003; cited from earlier work"}, "[3]": {"tested_on": "patients with end-stage cancer experiencing neuropathic pain", "assay": "Phase 2 placebo-controlled study of KRN5500, efficacy on neuropathic pain", "format": "in vivo, human", "settings": "for median decrease from baseline in pain intensity, clinic numeric rating scale (NRS) scores: placebo median change zero", "procedure": "as §1\nThe treatment groups were similar in demographics, with the majority of patients being Caucasian (73.7%) and approximately 50/50 in distribution by gender. The median age of patients enrolled was 62 years, ranging from 41 to 84 years. The average body surface area (BSA) was 1.8 m^2 ranging from 0.95 to 2.27 m^2. The majority of the patient population had allodynia (84.2%). This and other baseline characteristics of neuropathic pain were consistent between the treatment groups.\nas §2\nPain intensity, based on clinic numeric rating scale (NRS) scores, was analyzed for both the Intent-to-treat (ITT) and modified efficacy (ME) populations. […] Since more than 80% of patients had allodynia as a baseline characteristic, results from the analysis of the subset of patients with allodynia present at baseline was consistent with the overall analysis. Too few patients presented without allodynia at baseline to adequately draw conclusions in this subset. […] Three (25%) of the KRN5500 treated patients achieved 33% or greater pain decrease and none of the placebo patients achieved this level."}, "[4]": {"settings": "of 12 patients who received KRN5500"}, "[5]": {"settings": "brief pain inventory, no change in placebo"}, "[6]": {"settings": "neuropathic pain questionnaire, versus placebo"}},
  "data": [
    {"compound": "CCCCCCCCC/C=C/C=C/C(=O)NCC(=O)N[C@@H]1[C@@H](O)[C@@H](O)[C@@H](Nc2ncnc3[nH]cnc23)O[C@H]1[C@@H](O)CO", "note": "[KRN5500, 6-[4-deoxy-4-[(2E,4E)-tetradecadienoylglycyl}amino-L-glycero-β-L-mannoheptopyranosyl]amino-9H-purine]", "values": [
      {"measurement": "incidence of nausea and vomiting", "setting": "[1]; generally considered related to study drug", "result": "High incidences of nausea and vomiting"},
      {"measurement": "deaths", "setting": "[1]; in vivo", "result": "No deaths were observed"},
      {"measurement": "relation of serious AEs to study drug", "setting": "[1]; in vivo", "result": "None were considered to be related to study drug"},
      {"measurement": "patients withdrawn due to convulsions not thought to be related to study drug", "setting": "[1]; [4]", "result": "One"},
      {"measurement": "patients withdrawn due to nausea and vomiting thought to be related to study drug", "setting": "[1]; [4]", "result": "Two"},
      {"measurement": "adverse events moderate or severe", "setting": "[1]; placebo 71%", "result": 84, "unit": "%"},
      {"measurement": "patients with at least one treatment emergent adverse event", "setting": "[1]; placebo 86% (6 of 7 patients)", "result": 100, "unit": "%"},
      {"measurement": "patients experiencing serious adverse events (AEs)", "setting": "[1]; three patients, placebo 1 (14%)", "result": 25, "unit": "%"},
      {"measurement": "clinically significant laboratory abnormalities, changes in vital signs, physical examinations, or ECGs", "setting": "[1]; throughout the study", "result": "not observed"},
      {"measurement": "adverse events considered to be related to treatment", "setting": "[1]; typically gastrointestinal disorders such as nausea or vomiting, placebo 14%", "result": 92, "unit": "%"},
      {"measurement": "efficacy in rat models of neuropathic pain", "setting": "[2]", "result": "effective"},
      {"measurement": "aggregated physical and mental SF-12 scores", "setting": "[3]; 1 week post-dose follow up", "result": "basically unchanged from baseline"},
      {"measurement": "dose response at last dose received (Endpoint)", "setting": "[3]; ITT or ME population analysis", "result": "no trend for dose response"},
      {"measurement": "median decrease from baseline in pain intensity, clinic numeric rating scale (NRS) scores", "setting": "[3]; Intent-to-treat (ITT) population", "result": 22, "unit": "%"},
      {"measurement": "significance of decrease in pain intensity (clinic NRS)", "setting": "[3]; Wilcoxon Rank Sum test of the medians, ME analysis, p=0.03", "result": "statistically significant decrease"},
      {"measurement": "dynamic and cold allodynia assessment", "setting": "[3]; affected and unaffected areas, versus placebo", "result": "larger decrease in pain associated with both touch and cold"},
      {"measurement": "BPI: aggregate measure of pain's interference in the last 24 hours", "setting": "[3]; [5]", "result": "decreases from baseline"},
      {"measurement": "BPI: patient perception of pain at its least in the past 24 hours", "setting": "[3]; [5]", "result": "decreases from baseline"},
      {"measurement": "patients with a 20% or greater reduction in pain intensity", "setting": "[3]; diary endpoint, 5 of KRN5500 treated patients, placebo 1 (14%)", "result": 42, "unit": "%"},
      {"measurement": "median decrease from baseline in pain intensity, clinic numeric rating scale (NRS) scores", "setting": "[3]; modified efficacy (ME) population", "result": 23.6, "unit": "%"},
      {"measurement": "NPQ individual questions: burning pain, electric pain and freezing pain", "setting": "[3]; [6]", "result": "decreases from baseline in favor of KRN5500"},
      {"measurement": "NPQ questions: sensitivity to touch, shooting pain, numbness, tingling, or squeezing pain", "setting": "[3]; [6]", "result": "no different between treatment groups"},
      {"measurement": "NPQ: increased pain due to touch or to weather changes", "setting": "[3]; [6]", "result": "no treatment differences"},
      {"measurement": "best pain intensity response (largest decrease in pain) recorded in clinic over all doses, median decrease", "setting": "[3]; placebo showed no decrease", "result": 29.3, "unit": "%"},
      {"measurement": "median decrease in pain intensity based on diary data", "setting": "[3]; placebo showed no decrease", "result": 16.4, "unit": "%"},
      {"measurement": "SPQ: brush/touch induced pain scores", "setting": "[3]; supplemental pain questionnaire", "result": "greater decrease in pain scores than the Placebo treated patients"},
      {"measurement": "SPQ: cold induced pain", "setting": "[3]; supplemental pain questionnaire, at endpoint, both groups decreased", "result": "no treatment differences"},
      {"measurement": "patients achieving 33% or greater pain decrease", "setting": "[3]; three KRN5500 treated patients, none of the placebo patients", "result": 25, "unit": "%"},
      {"measurement": "Karnofsky Performance Status (KPS)", "setting": "[3]; throughout the study, baseline median 75", "result": "did not change throughout the study"}
    ]}
  ]
}
